Read-outs that look alike come from different tables or passages of the source.
Experiments:
Assay in all cases: biochemical
Parameters in all cases: KINOMEscan active site-directed competition binding assay (DiscoveRx), 456 kinases, per cent of control at 300 nM
Conditions in all cases: read-out: Percent of Control (%)
PIM3 = PIM3 (Homo sapiens, UniProt Q86V86)
Summary of the method: (§1)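 Binding was measured with an active site-directed competition binding assay that quantifies compound–kinase interactions. Test compounds were screened at 300 nmol/L across a 456-kinase panel.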

[1] = target: T1, ABL1(T315I)-phosphorylated (Homo sapiens, UniProt P00519, T315I)
T1 construct: phosphorylated
Summary of the method: as §1

RIPK1 = RIPK1 (Homo sapiens, UniProt Q13546)
Summary of the method: as §1

[2] = target: T2, ABL1(Q252H)-nonphosphorylated (Homo sapiens, UniProt P00519, Q252H)
T2 construct: nonphosphorylated
Summary of the method: as §1

NEK11 = NEK11 (Homo sapiens, UniProt Q8NG66)
Summary of the method: as §1

CDKL3 = CDKL3 (Homo sapiens, UniProt Q8IVW4)
Summary of the method: as §1

[3] = target: T3, RSK3(Kin.Dom.2-C-terminal) (Homo sapiens, UniProt Q15349)
T3 construct: gene RPS6KA2; Kin.Dom.2-C-terminal
Summary of the method: as §1

LIMK1 = LIMK1 (Homo sapiens, UniProt P53667)
Summary of the method: as §1

BMX = BMX (Homo sapiens, UniProt P51813)
Summary of the method: as §1

TNIK = TNIK (Homo sapiens, UniProt Q9UKE5)
Summary of the method: as §1

TGFBR2 = TGFBR2 (Homo sapiens, UniProt P37173)
Summary of the method: as §1

MET(M1250T) = MET(M1250T) (Homo sapiens, UniProt P08581, M1250T)
Summary of the method: as §1

CDC2L5 = target: T4, CDC2L5 (Homo sapiens, UniProt Q14004)
T4 construct: gene CDK13
Summary of the method: as §1

PFTK1 = target: T5, PFTK1 (Homo sapiens, UniProt O94921)
T5 construct: gene CDK14
Summary of the method: as §1

MEK6 = target: T6, MEK6 (Homo sapiens, UniProt P52564)
T6 construct: gene MAP2K6
Summary of the method: as §1

ERK1 = target: T7, ERK1 (Homo sapiens, UniProt P27361)
T7 construct: gene MAPK3
Summary of the method: as §1

MYO3B = MYO3B (Homo sapiens, UniProt Q8WXR4)
Summary of the method: as §1

ULK1 = ULK1 (Homo sapiens, UniProt O75385)
Summary of the method: as §1

CAMKK1 = CAMKK1 (Homo sapiens, UniProt Q8N5S9)
Summary of the method: as §1

EPHA7 = EPHA7 (Homo sapiens, UniProt Q15375)
Summary of the method: as §1

EGFR(G719S) = EGFR(G719S) (Homo sapiens, UniProt P00533, G719S)
Summary of the method: as §1

T6 sequence (P52564 whole entry): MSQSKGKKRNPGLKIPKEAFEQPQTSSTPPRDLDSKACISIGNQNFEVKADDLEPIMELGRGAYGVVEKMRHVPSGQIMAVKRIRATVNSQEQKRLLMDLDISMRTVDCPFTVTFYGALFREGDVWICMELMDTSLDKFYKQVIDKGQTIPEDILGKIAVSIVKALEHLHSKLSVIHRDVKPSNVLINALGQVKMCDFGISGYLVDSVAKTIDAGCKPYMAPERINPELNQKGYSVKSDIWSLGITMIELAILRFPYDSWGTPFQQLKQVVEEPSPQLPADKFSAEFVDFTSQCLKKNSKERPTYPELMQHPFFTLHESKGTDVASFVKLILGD
T5 sequence (O94921 whole entry): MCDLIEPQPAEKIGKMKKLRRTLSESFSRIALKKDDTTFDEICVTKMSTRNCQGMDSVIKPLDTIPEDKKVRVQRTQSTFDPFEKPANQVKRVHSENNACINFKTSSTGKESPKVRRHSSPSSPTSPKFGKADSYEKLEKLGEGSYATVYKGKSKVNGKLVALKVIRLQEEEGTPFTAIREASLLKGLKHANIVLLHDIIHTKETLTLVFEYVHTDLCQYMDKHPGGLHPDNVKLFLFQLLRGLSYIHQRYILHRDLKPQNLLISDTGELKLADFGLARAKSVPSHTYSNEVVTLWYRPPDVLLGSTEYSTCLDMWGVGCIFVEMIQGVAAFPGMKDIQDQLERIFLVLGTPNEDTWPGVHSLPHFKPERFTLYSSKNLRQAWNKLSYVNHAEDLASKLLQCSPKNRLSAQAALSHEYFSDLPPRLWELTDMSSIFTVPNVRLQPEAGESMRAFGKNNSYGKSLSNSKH
Sequence of LIMK1 (P53667 whole entry): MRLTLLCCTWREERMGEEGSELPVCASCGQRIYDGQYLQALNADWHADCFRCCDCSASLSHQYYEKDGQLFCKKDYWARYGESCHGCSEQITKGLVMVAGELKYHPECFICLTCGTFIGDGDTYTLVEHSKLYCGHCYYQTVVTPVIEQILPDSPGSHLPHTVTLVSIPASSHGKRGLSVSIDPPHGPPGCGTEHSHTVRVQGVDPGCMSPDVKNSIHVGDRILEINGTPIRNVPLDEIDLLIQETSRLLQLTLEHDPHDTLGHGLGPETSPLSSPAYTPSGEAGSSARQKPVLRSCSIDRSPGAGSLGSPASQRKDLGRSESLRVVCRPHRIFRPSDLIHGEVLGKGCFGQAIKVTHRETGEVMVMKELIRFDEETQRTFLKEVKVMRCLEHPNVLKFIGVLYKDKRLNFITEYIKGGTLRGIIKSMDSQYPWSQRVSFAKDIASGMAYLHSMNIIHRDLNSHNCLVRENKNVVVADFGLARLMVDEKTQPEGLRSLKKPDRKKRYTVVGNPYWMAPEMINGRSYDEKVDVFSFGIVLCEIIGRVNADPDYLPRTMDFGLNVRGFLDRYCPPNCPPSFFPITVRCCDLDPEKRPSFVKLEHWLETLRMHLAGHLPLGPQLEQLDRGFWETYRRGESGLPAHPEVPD
Sequence of MYO3B (Q8WXR4 whole entry): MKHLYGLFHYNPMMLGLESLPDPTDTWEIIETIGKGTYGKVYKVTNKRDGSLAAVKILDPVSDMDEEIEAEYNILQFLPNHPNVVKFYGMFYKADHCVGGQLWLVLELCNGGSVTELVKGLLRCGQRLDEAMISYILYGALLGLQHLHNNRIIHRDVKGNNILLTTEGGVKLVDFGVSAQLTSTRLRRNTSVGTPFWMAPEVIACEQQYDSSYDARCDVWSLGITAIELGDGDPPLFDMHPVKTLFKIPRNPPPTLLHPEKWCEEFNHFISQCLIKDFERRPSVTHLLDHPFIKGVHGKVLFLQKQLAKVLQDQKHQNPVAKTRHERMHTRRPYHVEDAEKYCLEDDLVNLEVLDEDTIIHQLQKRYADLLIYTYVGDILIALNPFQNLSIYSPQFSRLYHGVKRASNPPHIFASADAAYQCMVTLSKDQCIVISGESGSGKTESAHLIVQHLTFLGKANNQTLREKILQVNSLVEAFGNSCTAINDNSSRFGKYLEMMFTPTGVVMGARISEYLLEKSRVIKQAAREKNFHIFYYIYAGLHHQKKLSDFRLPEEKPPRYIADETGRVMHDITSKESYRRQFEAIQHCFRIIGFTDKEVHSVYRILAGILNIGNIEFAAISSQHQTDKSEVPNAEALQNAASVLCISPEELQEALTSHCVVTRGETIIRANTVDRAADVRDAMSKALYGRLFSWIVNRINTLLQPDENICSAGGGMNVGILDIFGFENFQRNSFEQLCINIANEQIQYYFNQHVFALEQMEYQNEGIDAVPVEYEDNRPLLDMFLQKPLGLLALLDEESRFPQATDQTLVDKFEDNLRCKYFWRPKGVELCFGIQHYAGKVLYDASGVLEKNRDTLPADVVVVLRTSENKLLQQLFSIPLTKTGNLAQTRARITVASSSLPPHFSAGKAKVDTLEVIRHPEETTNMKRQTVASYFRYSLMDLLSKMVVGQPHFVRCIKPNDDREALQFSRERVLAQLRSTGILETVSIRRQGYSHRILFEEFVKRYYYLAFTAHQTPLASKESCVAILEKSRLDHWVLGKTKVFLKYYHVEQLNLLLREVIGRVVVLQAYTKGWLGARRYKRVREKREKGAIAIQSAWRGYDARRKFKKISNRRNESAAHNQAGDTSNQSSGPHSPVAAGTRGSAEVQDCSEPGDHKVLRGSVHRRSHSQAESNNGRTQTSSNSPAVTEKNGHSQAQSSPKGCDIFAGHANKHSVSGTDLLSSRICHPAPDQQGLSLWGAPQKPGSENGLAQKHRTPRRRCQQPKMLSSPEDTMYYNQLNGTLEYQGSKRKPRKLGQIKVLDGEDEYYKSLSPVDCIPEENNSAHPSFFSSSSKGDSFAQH
T7 sequence (P27361 whole entry): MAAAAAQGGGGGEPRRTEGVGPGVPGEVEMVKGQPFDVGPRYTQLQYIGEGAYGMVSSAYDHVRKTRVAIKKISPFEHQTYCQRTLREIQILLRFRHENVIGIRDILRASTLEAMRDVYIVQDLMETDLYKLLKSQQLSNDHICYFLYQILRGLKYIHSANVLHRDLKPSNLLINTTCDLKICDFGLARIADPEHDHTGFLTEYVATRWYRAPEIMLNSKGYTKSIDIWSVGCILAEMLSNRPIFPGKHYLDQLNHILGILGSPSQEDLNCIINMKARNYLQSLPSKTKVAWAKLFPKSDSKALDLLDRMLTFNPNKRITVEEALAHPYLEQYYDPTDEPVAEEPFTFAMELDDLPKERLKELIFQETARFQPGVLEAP
Sequence of BMX (P51813 whole entry): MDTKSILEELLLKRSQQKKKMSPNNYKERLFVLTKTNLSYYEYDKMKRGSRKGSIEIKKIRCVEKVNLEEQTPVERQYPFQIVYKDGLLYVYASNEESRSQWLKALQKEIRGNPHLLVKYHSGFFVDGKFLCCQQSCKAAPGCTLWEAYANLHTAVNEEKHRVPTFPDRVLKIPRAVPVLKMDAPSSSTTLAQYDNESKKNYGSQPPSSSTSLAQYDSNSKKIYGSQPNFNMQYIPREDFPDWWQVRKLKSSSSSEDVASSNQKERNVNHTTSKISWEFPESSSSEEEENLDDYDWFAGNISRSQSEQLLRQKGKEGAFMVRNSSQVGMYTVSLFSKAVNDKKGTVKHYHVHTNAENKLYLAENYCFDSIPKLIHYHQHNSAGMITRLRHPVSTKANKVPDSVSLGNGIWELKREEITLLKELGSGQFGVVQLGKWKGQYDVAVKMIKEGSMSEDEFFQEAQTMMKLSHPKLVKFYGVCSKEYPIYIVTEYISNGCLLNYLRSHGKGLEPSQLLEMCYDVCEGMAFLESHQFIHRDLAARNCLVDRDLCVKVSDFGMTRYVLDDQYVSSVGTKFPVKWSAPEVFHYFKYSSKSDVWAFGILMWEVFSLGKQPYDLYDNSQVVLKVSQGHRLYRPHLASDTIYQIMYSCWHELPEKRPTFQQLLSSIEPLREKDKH
Sequence of CAMKK1 (Q8N5S9 whole entry): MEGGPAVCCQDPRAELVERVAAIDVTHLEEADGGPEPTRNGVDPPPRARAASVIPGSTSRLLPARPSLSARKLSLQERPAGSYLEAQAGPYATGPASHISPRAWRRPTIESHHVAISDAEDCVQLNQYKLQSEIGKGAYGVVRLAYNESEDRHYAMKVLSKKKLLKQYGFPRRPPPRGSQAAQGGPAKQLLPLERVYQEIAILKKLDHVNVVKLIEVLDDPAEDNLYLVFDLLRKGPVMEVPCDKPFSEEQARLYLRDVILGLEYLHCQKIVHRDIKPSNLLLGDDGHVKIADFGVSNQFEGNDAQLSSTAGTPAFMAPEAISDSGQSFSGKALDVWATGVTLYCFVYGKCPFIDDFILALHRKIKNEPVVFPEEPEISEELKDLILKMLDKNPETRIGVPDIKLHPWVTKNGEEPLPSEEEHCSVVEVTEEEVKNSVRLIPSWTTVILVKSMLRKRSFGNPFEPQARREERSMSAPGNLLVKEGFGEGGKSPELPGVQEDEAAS

Structure (SMILES): O=C(/C=C/c1cnccc1-c1ccc(F)cc1)Nc1ccc(CCc2nnco2)cc1 [T-418, (2E)-3-(4-(4-fluorophenyl)pyridin-3-yl)-N-(4-(2-(1,3,4-oxadiazol-2-yl)ethyl)phenyl)acrylamide]
- remaining binding at 0.3 µM (PIM3; sheet T-418): 76%
- remaining binding at 0.3 µM ([1]; sheet T-418): 100%
- remaining binding at 0.3 µM (RIPK1; sheet T-418): 83%
- remaining binding at 0.3 µM ([2]; sheet T-418): 83%
- remaining binding at 0.3 µM (NEK11; sheet T-418): 100%
- remaining binding at 0.3 µM (CDKL3; sheet T-418): 78%
- remaining binding at 0.3 µM ([3]; sheet T-418): 100%
- remaining binding at 0.3 µM (LIMK1; sheet T-418): 100%
- remaining binding at 0.3 µM (BMX; sheet T-418): 100%
- remaining binding at 0.3 µM (TNIK; sheet T-418): 100%
- remaining binding at 0.3 µM (TGFBR2; sheet T-418): 84%
- remaining binding at 0.3 µM (MET(M1250T); sheet T-418): 97%
- remaining binding at 0.3 µM (CDC2L5; sheet T-418): 87%
- remaining binding at 0.3 µM (PFTK1; sheet T-418): 87%
- remaining binding at 0.3 µM (MEK6; sheet T-418): 99%
- remaining binding at 0.3 µM (ERK1; sheet T-418): 94%
- remaining binding at 0.3 µM (MYO3B; sheet T-418): 52%
- remaining binding at 0.3 µM (ULK1; sheet T-418): 41%
- remaining binding at 0.3 µM (CAMKK1; sheet T-418): 100%
- remaining binding at 0.3 µM (EPHA7; sheet T-418): 96%
- remaining binding at 0.3 µM (EGFR(G719S); sheet T-418): 68%

Structure (SMILES): Cc1ncccc1Oc1sc(C(N)=O)c2c1-c1c(cnn1C)CC2 [T-474, 1-methyl-8-((2-methylpyridin-3-yl)oxy)-4,5-dihydro-1H-thieno[3,4-g]indazole-6-carboxamide]
- remaining binding at 0.3 µM (PIM3): 82%
- remaining binding at 0.3 µM [1]: 100%
- remaining binding at 0.3 µM (RIPK1): 95%
- remaining binding at 0.3 µM [2]: 100%
- remaining binding at 0.3 µM (NEK11): 100%
- remaining binding at 0.3 µM (CDKL3): 96%
- remaining binding at 0.3 µM [3]: 100%
- remaining binding at 0.3 µM (LIMK1): 100%
- remaining binding at 0.3 µM (BMX): 82%
- remaining binding at 0.3 µM (TNIK): 100%
- remaining binding at 0.3 µM (TGFBR2): 78%
- remaining binding at 0.3 µM (MET(M1250T)): 100%
- remaining binding at 0.3 µM (CDC2L5): 86%
- remaining binding at 0.3 µM (PFTK1): 100%
- remaining binding at 0.3 µM (MEK6): 92%
- remaining binding at 0.3 µM (ERK1): 100%
- remaining binding at 0.3 µM (MYO3B): 84%
- remaining binding at 0.3 µM (ULK1): 43%
- remaining binding at 0.3 µM (CAMKK1): 100%
- remaining binding at 0.3 µM (EPHA7): 94%
- remaining binding at 0.3 µM (EGFR(G719S)): 92%

— paper PMC5862592, “CDK8/19 inhibition induces premature G1/S transition and ATR-dependent cell death in prostate cancer cells” (Oncotarget, 2018)
